No end group written: not given here. HA = not defined here
What was measured:
Assay type in all cases: cell-based, human
[1] = test system: γH2AX; test: Confocal immunofluorescence of γH2AX, HeLa; conditions: HeLa expressing EGFP-H2AX (1–35) vs EGFP, Adriamycin-treated
Procedure: (§1) Cells were plated onto chamber slides one day before treatment. Following treatment of cells with respective compounds, the adherent cells were fixed with 5% formaldehyde for 10 min and then washed with phosphate buffered saline (PBS). Samples were blocked (0.5% NP-40, 5% milk powder, 1% fetal bovine serum) for 30 min. After a single wash with PBS, cells were incubated with primary antibodies for 45 to 60 min. Coverslips were washed with PBS and then incubated with secondary antibodies for another 45 to 60 min. They were then washed with PBS and mounted with 0.1 μg/mL 4′,6′-diamidino-2-phenylindole (DAPI) containing mounting solution. […]
Our next objective was to analyze the biological significance of the CARP-1–H2AX interaction in cells. […] Next, we measured activation of caspases as an apoptosis readout in cells expressing myc-His-tagged wild-type CARP-1 or CARP-1 (Δ600–650) proteins that were either untreated or treated with Adriamycin or CFM compounds as detailed in Section 2. We utilized a lower, 4–5 μM dose of Adriamycin or CFM compounds because a 10 μM Adriamycin dose caused interference in signal output/readout in this particular assay, likely due to background fluorescence that is emitted by higher dose of Adriamycin. […]

[2] = test system: HeLa cells; test: Transduction/localization of TAT-tagged proteins, HeLa; conditions: 300 μg/mL, confocal
Procedure: as §1
(§2) We further tested whether and the extent to which transient and ectopic expression of CARP-1 (636–650) peptide would also interfere with the cell-growth inhibition by Adriamycin. […] The wild-type MDA-MB-468 or HeLa cells were pre-incubated with His-TAT-HA-EGFP or His-TAT-HA-CARP-1 (636–650) proteins, and presence of GFP and CARP-1 (636–650) was determined by immuno-cytochemical staining followed by photography using a confocal microscope as above. […]
(§3) Figure S9. […] Multiple cells from each of the confocal images in the γH2AX column of Figure 8C were subjected to quantitation for levels of γH2AX. The quantitation of the images of stained cells was carried out by using ImageJ software (imagej.nih.gov/ij/plugins/track/jacop2). […]

[3] = test system: MDA-MB-468 cells; test: Transduction/localization of TAT-tagged proteins, MDA-MB-468; conditions: MDA-MB-468, 300 μg/mL, confocal
Procedure: as §1, §2, §3

Substance	nuclear presence of γH2AX [1]	cellular localization after transduction [2]	cellular localization after transduction [3]
EGFP-H2AX (1–35): EGFP-tagged fusion protein stably expressed in MDA-MB-468 and HeLa sublines (MSGRGKTGGKARAKAKSRSSRAGLQFPVGRVHRLL; also: EGFP fusion, end not given here; UniProt P16104 1-35, looked up, fragment)	increased nuclear presence of γH2AX		
His-TAT-HA-CARP-1 (636–650): His-TAT-HA-tagged CARP-1 (636–650) peptide, >95% purity, commercially synthesized ({His-TAT-HA}-PKTMKVNDLRKELES; reading uncertain; UniProt Q8IX12 636-650, looked up, fragment)		predominantly present in the cytoplasmic region	predominantly present in the cytoplasmic region

Source: publication PMC6406907, “A H2AX–CARP-1 Interaction Regulates Apoptosis Signaling Following DNA Damage” (Cancers, 2019)
